Experimental data from patent publication US20240342143A1, “APPLICATION OF ALKALOID COMPOUND HIP IN TREATMENT OF CARDIAC TRAUMA” (HUZHOU COLLEGE, priority 2022, published 2024).

Assays:
Type in all cases: cell-based
Cleaved-Caspase-3 = experiment: Western blot of Cleaved-Caspase-3 expression in DOX-induced H9c2 cardiomyocytes; details: FIG. 3
Description: (§1) (2) From H9c2 cardiomyocytes which were treated with different tested seabuckthorn alkaloids for 1 h and then treated with 2.5 μM DOX for 24 h, proteins were extract. That is, the H9c2 cardiomyocytes were lysed and scraped, and the cell lysate were collected and centrifuged at 12,000 g for 15 min to collect the supernatant and discard the precipitate. The supernatant was stored at […], and quantified for proteins using the BCA method for later use. SDS-PAGE electrophoresis was performed by using 5% stacking gel (Step1: 80V, 30 min; Step2: 120V, 180 min). The membrane transfer was performed using a PVDF membrane for 30 min at 80 mA. Blocking and hybridization was performed by blocking in 5% nonfat milk powder for 1 h, incubating with a primary antibody overnight and incubating with a secondary antibody at room temperature for 1-2 h with gentle shaking. Development was performed by ECL reagent development. Expression levels of intracellular Caspase-3 and p-JNK/JNK proteins were observed using a gel imaging system.

p-JNK = experiment: Western blot of p-JNK/JNK expression in DOX-induced H9c2 cardiomyocytes; details: FIG. 4; for expression level of p-JNK vs DOX model group: 1 h, then 2.5 μM DOX 24 h
Description: as §1

H9c2 cardiomyocytes = experiment: Toxicity effect of Hip on H9c2 cardiomyocytes (MTT colorimetric method); details: 24 h, FIG. 1
Description: H9c2 cells were incubated with the alkaloid compound Hip at different concentrations (0.1μ, 1μ, 5μ, 10μ, 20μ, 40μ, 80μ, 160 μM) of for 24 h. The toxicity effect of the alkaloid compound on cardiomyocytes was evaluated by using the MTT colorimetric method.

[1] = tested on: DOX-induced H9c2 cardiomyocytes; experiment: Effect of Hip on DOX-induced H9c2 cardiomyocyte toxicity (MTT colorimetric method); details: 1 h pre-incubation, then 2.5 μM DOX 24 h, FIG. 2
Description: (1) H9c2 cells were pre-incubated with the alkaloid compound Hip for 1 h, and then added with 2.5 μM doxorubicin (DOX) for 24 h. The effect of the alkaloid compound Hip for DOX-induced cardiomyocyte apoptosis activity was screened by using the MTT colorimetric method. The optimal concentration range for action was determined.

[2] = 2.5 μM DOX 24 h, DOX model group

Compound	expression level of Cleaved-Caspase-3 vs Con group (Cleaved-Caspase-3; [2])	expression level of p-JNK vs Con group (p-JNK; [2])	viability of H9c2 cells vs Con group (H9c2 cardiomyocytes; Hip 80 μM)	viability of H9c2 cells vs Con group (H9c2 cardiomyocytes; Hip 0.1~40 μM)	difference from DOX model group in DOX-induced myocardial cytotoxicity ([1]; Hip 5-80 μM)	inhibition of DOX-induced myocardial cytotoxicity vs DOX model group ([1]; different Hip concentrations)	expression level of Cleaved-Caspase-3 vs DOX model group (Cleaved-Caspase-3; Hip 10 μM, 20 μM and 40 μM, 1 h, then 2.5 μM DOX 24 h)	expression level of p-JNK vs DOX model group (p-JNK; Hip high-dose group 40 μM)	expression level of p-JNK vs DOX model group (p-JNK; Hip low-dose group 10 μM)	expression level of p-JNK vs DOX model group (p-JNK; Hip middle-dose group 20 μM)
COc1cccc2c1C(=O)c1c(O)c3c(c(O)c1C2=O)C[C@@](O)(C(=O)CO)C[C@@H]3O[C@H]1C[C@H](N)[C@H](O)[C@H](C)O1 [DOX, doxorubicin, reference compound]	can significantly increase the expression level of Cleaved-Caspase-3	can significantly increase the expression level of p-JNK								
O=C1CC[C@H]2c3[nH]c4ccc(O)cc4c3CCN12 [Hip, Hippophamide]			a significant difference compared with the Con group	no statistical difference compared with the Con group	significantly or extremely significant different	can inhibit DOX-induced myocardial cytotoxicity	can decrease the increased level of Cleaved-Caspase-3 caused by DOX to varying degree	extremely significant differences	no statistical difference	extremely significant differences
